Laboratory results published in US20260374753A1, “NOVEL COMPOUND AND PREPARATION METHOD THEREFOR” (ASTRION INC., priority 2023, published 2026).

How the values were obtained:
U87-MG cells = assay: CCK assay of cell proliferation inhibition in human glioblastoma cells; format: cell-based; details: 0, 1, 2, and 4 μM, 48 hours, 450 nm
Protocol: Human glioblastoma cell line U87-MG cells were seeded at a density of 1×10^4 cells/well in a 96-well plate and cultured for 24 hours. Thereafter, the cells were treated with DMSO as a control and the compound AON-MG23-01 or AON-MG23-02 of the present invention, and then cultured for 48 hours. The compound of the present invention was treated at various concentrations of 0, 1, 2, and 4 μM. 10 μL of a CCK reagent was added and reacted for an hour, and the absorbance was then measured at 450 nm.

U87-MG [1] = assay: Matrigel Transwell invasion (metastasis inhibition) in human glioblastoma; format: cell-based; details: 0, 1, 2, and 4 μM, 24 hours, compared to the untreated control
Protocol: A human glioblastoma cell line U87-MG was seeded at a density of 8×10^4 cells/well on Matrigel-coated filters (Transwell invasion chambers, Corning), and the cells were then treated with the compound (AON-MG23-01 or AON-MG23-02; each at 0, 1, 2, and 4 μM) of the present invention, and cultured at 37 °C in a CO2 incubator for 24 hours. After the culturing was completed, the cells were fixed and stained using the Diff-Quick Stain kit (Sysmex, Kobe, Japan). Images of the stained cells were taken under a microscope, the cells were counted using Image J software, and statistical analysis was then performed.

U87-MG [2] = assay: Matrigel invasion comparison with EGFR inhibitor and ANO1 inhibitor in human glioblastoma; format: cell-based; details: 4 μM AON-MG23-02, 16 hours, vs untreated, Osimertinib, 100 μM CaCCinh-A01
Protocol: A human glioblastoma cell line U87-MG was seeded at a density of 6×10^4 cells/well on the top of a Matrigel-coated filter (Transwell invasion chambers, Corning), treated with 4 μM of the compound AON-MG23-02 of the present invention, […] of the EGFR inhibitor Osimertinib, 100 μM of the ANO1 inhibitor CaCCinh-A01, or a combination of 4 μM of Osimertinib and 100 μM of CaCCinh-A01, and then cultured at 37 °C in a CO2 incubator for 16 hours. After the culturing was completed, the cells were fixed and stained using a Diff-Quick stain kit (Sysmex, Kobe, Japan). Images of the stained cells were taken under a microscope, the cells were counted using Image J software, and statistical analysis was then performed.

ANO1 [3] = assay: Western blot comparison with EGFR inhibitor and ANO1 inhibitor: ANO1 expression; format: cell-based, human; details: U87-MG; 4 μM AON-MG23-02; 48 hours; vs untreated, 2 μM Osimertinib, 100 μM CaCCinh-A01, and their combination
Protocol: (§1) The inhibitory effects of the compound AON-MG23-02 of the present invention, the EGFR inhibitor Osimertinib, and the ANO1 inhibitor CaCCinh-A01 on the expression of ANO1, EGFR, and pEGFR proteins in a glioblastoma cell line were compared. A human glioblastoma cell line U87-MG was seeded at a density of 100×10^4 cells/dish in a 60 mm dish, and cultured for 24 hours. Thereafter, the cells were treated with 4 μM of AON-MG23-02, 2 μM of the EGFR inhibitor Osimertinib, 100 μM of the ANO1 inhibitor CaCCinh-A01, or a combination of 2 μM of Osimertinib and 100 μM of CaCCinh-A01, and cultured for 48 hours. The cultured cells were harvested and the harvested cells were lysed for Western blotting. An anti-ANO1 antibody (Abcam, ab53212), an anti-pEGFR antibody (Cell Signaling, #4407S), an anti-EGFR antibody (Cell Signaling, #4267S), and an anti-ACTIN antibody (sigma, #A2066) were used as antibodies for Western blotting. Protein concentration was quantified using the BSA method (a protein quantitation assay, a bovine serum albumin assay) (Pierce, Cat. 23225). […] The amount of each protein was quantified and analyzed using Image J software.

EGFR [4] = assay: Western blot comparison with EGFR inhibitor and ANO1 inhibitor: EGFR expression; format: cell-based, human; details: U87-MG; 4 μM AON-MG23-02; 48 hours; vs untreated, 2 μM Osimertinib, 100 μM CaCCinh-A01, and their combination
Protocol: as §1

pEGFR = assay: Western blot comparison with EGFR inhibitor and ANO1 inhibitor: pEGFR expression; format: cell-based, human; details: U87-MG; 4 μM AON-MG23-02; 48 hours; vs untreated, 2 μM Osimertinib, 100 μM CaCCinh-A01, and their combination
Protocol: as §1

ANO1 [5] = assay: Western blot: AON-MG23-02 derivatives, ANO1 protein expression in glioblastoma cell line; format: cell-based, human; details: U87-MG; 0, 8, 16, and 32 μM; 48 hours; compared to the untreated control
Protocol: (§2) The inhibitory effects of AON-MG23-02 derivatives AON-MG23-05, AON-MG23-06, AON-MG23-07, and AON-MG23-08 on ANO1 and EGFR protein expression in a glioblastoma cell line were compared. A human glioblastoma cell line U87-MG was seeded at a density of 100×10^4 cells/dish in a 60 mm dish, and cultured for 24 hours. Thereafter, the cells were treated with 0, 8, 16, and 32 μM of the AON-MG23-05, AON-MG23-06, AON-MG23-07, and AON-MG23-08 derivatives, respectively, and cultured for 48 hours. The cultured cells were harvested, and the harvested cells were lysed for Western blotting. An anti-ANO1 antibody (Abcam, ab53212), an anti-pEGFR antibody (Cell Signaling, #4407S), an anti-EGFR antibody (Cell Signaling, #4267S), and an anti-ACTIN antibody (sigma, #A2066) were used as antibodies for Western blotting. Protein concentration was quantified using the […] (a protein quantitation assay, a bovine serum albumin assay) (Pierce, Cat. 23225). […] The amount of each protein was quantified and analyzed using Image J software.

EGFR [6] = assay: Western blot: AON-MG23-02 derivatives, EGFR protein expression in glioblastoma cell line; format: cell-based, human; details: U87-MG; 0, 8, 16, and 32 μM; 48 hours; compared to the untreated control
Protocol: as §2

U87-MG [7] = assay: Matrigel invasion (metastasis inhibition) of AON-MG23-02 derivatives in human glioblastoma; format: cell-based; details: 0, 8, 16, and 32 μM, 24 hours, compared to the untreated control
Protocol: A human glioblastoma cell line U87-MG was seeded at a density of 8×10^4 cells/well on the top of a Matrigel-coated filter (Transwell invasion chambers, Corning), and then treated with 0, 8, 16, and 32 μM of each of the compound derivatives AON-MG23-05, AON-MG23-06, AON-MG23-07, and AON-MG23-08 of the present invention, and cultured at 37 °C in a CO2 incubator for 24 hours. After the culturing was completed, the cells were fixed and stained using a Diff-Quick stain kit (Sysmex, Kobe, Japan). Images of the stained cells were taken under a microscope, the cells were counted using Image J software, and statistical analysis was then performed.

Row | Compound | inhibition of proliferation of U87-MG cells (U87-MG cells) | degree of penetration into Matrigel (U87-MG [1]) | expression of ANO1 protein (derivatives) (ANO1 [5]) | expression of EGFR protein (derivatives) (EGFR [6]) | degree of penetration into Matrigel (derivatives) (U87-MG [7]) | also measured
1 | COc1cc(N2CCC(N3CCN(C)CC3)CC2)ccc1Nc1ncc(Cl)c(Nc2ccccc2N(C2CC2)S(C)(=O)=O)n1 [AON-MG23-01, N-(2-((5-chloro-2-((2-methoxy-4-(4-(4-methylpiperazin-1-yl)piperidin-1-yl)phenyl)amino)pyrimidin-4-yl)amino)phenyl)-N-cyclopropylmethanesulfonamide] | inhibits the proliferation of U87-MG cells | reduced degree of penetration into Matrigel compared to the untreated control |  |  |  | 
2 | COc1cc(N2CCC(N(C)C)CC2)ccc1Nc1ncc(Cl)c(Nc2ccccc2N(C2CC2)S(C)(=O)=O)n1 [AON-MG23-02, N-(2-((5-chloro-2-((4-(4-(dimethylamino)piperidin-1-yl)-2-methoxyphenyl)amino)pyrimidin-4-yl)amino)phenyl)-N-cyclopropylmethanesulfonamide] | inhibits the proliferation of U87-MG cells | reduced degree of penetration into Matrigel compared to the untreated control |  |  |  | degree of penetration into Matrigel (comparison with EGFR inhibitor and ANO1 inhibitor) (U87-MG [2]): reduced degree of penetration into Matrigel compared to the untreated control, the EGFR inhibitor-treated group, and the ANO1 inhibitor-treated group; expression of ANO1 protein (comparison) (ANO1 [3]): reduces the expression of ANO1, EGFR, and pEGFR proteins compared to the untreated control, the EGFR inhibitor-treated group, the ANO1 inhibitor-treated group, and the EGFR inhibitor and ANO1 inhibitor combination-treated group; expression of EGFR protein (comparison) (EGFR [4]): reduces the expression of ANO1, EGFR, and pEGFR proteins compared to the untreated control, the EGFR inhibitor-treated group, the ANO1 inhibitor-treated group, and the EGFR inhibitor and ANO1 inhibitor combination-treated group; expression of pEGFR protein (comparison) (pEGFR): reduces the expression of ANO1, EGFR, and pEGFR proteins compared to the untreated control, the EGFR inhibitor-treated group, the ANO1 inhibitor-treated group, and the EGFR inhibitor and ANO1 inhibitor combination-treated group
3 | O=C1c2ccccc2CN1Cc1ccc(CCN(CCO)Cc2ccc3ccccc3c2)cc1 [AON-MG23-05, 2-(4-(2-((2-hydroxyethyl)(naphthalen-2-ylmethyl)amino)ethyl)benzyl)isoindolin-1-one] |  |  | reduced expression of ANO1 and EGFR proteins compared to the untreated control | reduced expression of ANO1 and EGFR proteins compared to the untreated control | reduced degree of penetration into Matrigel compared to the untreated control | 
4 | CCN(Cc1ccc2ccccc2c1)CC(O)c1ccc(CN2Cc3ccccc3C2=O)cc1 (stereo not shown) [AON-MG23-06, 2-(4-(2-(ethyl(naphthalen-2-ylmethyl)amino)-1-hydroxyethyl)benzyl)isoindolin-1-one] |  |  |  |  | reduced degree of penetration into Matrigel compared to the untreated control | 
5 | O=C1c2ccccc2CN1Cc1ccc(CCP(=O)(Cc2ccc3ccccc3c2)Cc2ccc3ccccc3c2)cc1 [AON-MG23-07, 2-(4-(2-(bis(naphthalen-2-ylmethyl)phosphoryl)ethyl)benzyl)isoindolin-1-one] |  |  |  |  | reduced degree of penetration into Matrigel compared to the untreated control | 
6 | NC(=O)N(CCc1ccc(CN2Cc3ccccc3C2=O)cc1)Cc1ccc2ccccc2c1 [AON-MG23-08, 1-(naphthalen-2-ylmethyl)-1-(4-((1-oxoisoindolin-2-yl)methyl)phenethyl)urea] |  |  | reduced expression of ANO1 and EGFR proteins compared to the untreated control | reduced expression of ANO1 and EGFR proteins compared to the untreated control | reduced degree of penetration into Matrigel compared to the untreated control | 
